According to patent US20130217060A1 (Butamax(TM) Advanced Biofuels LLC, priority 2007, published 2013):
Where two headings read alike, the source gives them in different places.

Legend:
[1] = test system: Saccharomyces cerevisiae BY4741; conditions: for % Growth Inhibition: six hours
Protocol: Tolerance levels were determined for yeast strain Saccharomyces cerevisiae BY4741 (described in Example 21) at 25° C. and 30° C. as follows. The strain was cultured in YPD medium. Overnight cultures in the absence of any test compound were started in 25 mL of YPD medium in 150 mL flasks with incubation at 30° C. or at 25° C. in shaking water baths. The next morning, each overnight culture was diluted into a 500 mL flask-containing 300 mL of fresh medium to an initial OD600 of about 0.1. The flasks were incubated in shaking water baths at 30° C. or 25° C., using the same temperature as used for each overnight culture. […] The ΔOD600 was calculated by subtracting the initial OD600 from the final OD600 at 6 hours. The percent growth inhibition relative to the control culture was calculated as follows: % Growth Inhibition=100−[100(Sample ΔOD600/Control ΔOD600)].

[2] = test system: Lactobacillus plantarum PN0512; assay: Growth of L. plantarum PN0512 in the presence of butanols at different temperatures (OD600 for six hours); assay type: cell-based; design: key to Growth in the presence of 1-butanol / Growth in the presence of isobutanol / Growth in the presence of 2-butanol: “+” = growth observed as an increase in OD600.; “−” = no growth observed, i.e. no change in OD600
E. coli strain BW25113 = assay: Survival of E. coli after 30 min MEK shock (colony counts); assay type: cell-based, Escherichia coli; conditions: for % Survival at 28° C. / % Survival at 37° C.: average of duplicate experiments
[3] = target: 3-hydroxybutyryl-CoA dehydrogenase (Clostridium acetobutylicum, UniProt P52041); assay: Hydroxybutyryl-CoA dehydrogenase activity (NADH oxidation, 340 nm); conditions: induced E. coli BL21-AI culture, one typical assay
Chain of 3-hydroxybutyryl-CoA dehydrogenase (P52041 whole entry): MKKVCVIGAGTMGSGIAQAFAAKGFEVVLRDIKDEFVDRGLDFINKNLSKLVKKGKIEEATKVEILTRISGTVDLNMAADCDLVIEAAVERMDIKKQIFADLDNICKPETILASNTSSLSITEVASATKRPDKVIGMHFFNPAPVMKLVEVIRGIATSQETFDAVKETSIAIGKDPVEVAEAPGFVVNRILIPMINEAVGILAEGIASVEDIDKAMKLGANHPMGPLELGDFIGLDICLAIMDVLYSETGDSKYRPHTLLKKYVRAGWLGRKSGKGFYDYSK

acetoacetyl-CoA thiolase = assay: Acetoacetyl-CoA thiolase activity in cell free extracts (absorbance 303 nm); conditions: cell free extract of arabinose-induced E. coli BL21-AI culture, one typical assay
crotonase = target: T1, crotonase (Clostridium acetobutylicum, UniProt P52046); assay: Crotonase activity assay (Stern); assay type: biochemical; conditions: induced E. coli BL21-AI culture, one typical assay
T1 construct: made in house; host or cells: E. coli BL21-AI (pDEST14crt); S. cerevisiae BY4741 (pNY11) and BY4743 (pNY103)
Protocol: Crotonase activity was assayed as described by Stern (Methods Enzymol. 1, 559-566, (1954)).
Enzyme assays were performed as described above.

butanol dehydrogenase = assay: Butanol dehydrogenase activity (NADH oxidation, 340 nm); assay type: biochemical, Clostridium acetobutylicum; conditions: induced E. coli BL21-AI culture, one typical assay

1-butanol
growth inhibition of strain BY4741 at 25° C. compared with 30° C. ([1]; 1% 1-butanol): less inhibited
% Growth Inhibition ([1]; 1% 1-butanol, 25° C.): 43%
% Growth Inhibition ([1]; 1% 1-butanol, 30° C.): 64%
% Growth Inhibition ([1]; 2% 1-butanol, 25° C.): No growth
% Growth Inhibition ([1]; 2% 1-butanol, 30° C.): No growth
Growth in the presence of 1-butanol ([2]; 1.0 % w/v, 37° C.): +
Growth in the presence of 1-butanol ([2]; 1.2 % w/v, 37° C.): +
Growth in the presence of 1-butanol ([2]; 1.4 % w/v, 37° C.): +
Growth in the presence of 1-butanol ([2]; 1.5 % w/v, 25° C.): +
Growth in the presence of 1-butanol ([2]; 1.5 % w/v, 30° C.): +
Growth in the presence of 1-butanol ([2]; 1.5 % w/v, 37° C.): +
Growth in the presence of 1-butanol ([2]; 1.6 % w/v, 37° C.): +
Growth in the presence of 1-butanol ([2]; 1.8 % w/v, 37° C.): +
Growth in the presence of 1-butanol ([2]; 2.0 % w/v, 25° C.): +
Growth in the presence of 1-butanol ([2]; 2.0 % w/v, 30° C.): +
Growth in the presence of 1-butanol ([2]; 2.0 % w/v, 37° C.): +
Growth in the presence of 1-butanol ([2]; 2.1 % w/v, 37° C.): +
Growth in the presence of 1-butanol ([2]; 2.2 % w/v, 37° C.): +
Growth in the presence of 1-butanol ([2]; 2.3 % w/v, 37° C.): +
Growth in the presence of 1-butanol ([2]; 2.4 % w/v, 25° C.): +
Growth in the presence of 1-butanol ([2]; 2.4 % w/v, 30° C.): +
Growth in the presence of 1-butanol ([2]; 2.4 % w/v, 37° C.): −
Growth in the presence of 1-butanol ([2]; 2.7 % w/v, 30° C.): +
Growth in the presence of 1-butanol ([2]; 2.7 % w/v, 37° C.): −
Growth in the presence of 1-butanol ([2]; 2.9 % w/v, 25° C.): +
Growth in the presence of 1-butanol ([2]; 2.9 % w/v, 30° C.): −
Growth in the presence of 1-butanol ([2]; 2.9 % w/v, 37° C.): −
Growth in the presence of 1-butanol ([2]; 3.1 % w/v, 25° C.): +
Growth in the presence of 1-butanol ([2]; 3.1 % w/v, 30° C.): −
Growth in the presence of 1-butanol ([2]; 3.1 % w/v, 37° C.): −
Growth in the presence of 1-butanol ([2]; 3.2 % w/v, 25° C.): −
Growth in the presence of 1-butanol ([2]; 3.2 % w/v, 30° C.): −
Growth in the presence of 1-butanol ([2]; 3.3 % w/v, 25° C.): −
Growth in the presence of 1-butanol ([2]; 3.4 % w/v, 25° C.): −
Growth in the presence of 1-butanol ([2]; 3.4 % w/v, 30° C.): −
concentration in which growth was observed ([2]; 25° C.): 3.1%
concentration in which growth was not observed ([2]; 30° C.): 2.9%
concentration in which growth was observed ([2]; 30° C.): 2.7%
concentration in which growth was not observed ([2]; 37° C.): 2.4%
concentration in which growth was observed ([2]; 37° C.): 2.3%
Growth in the presence of 1-butanol ([2]; […] w/v, 37° C.): −

CCC(C)O (centres unmarked) [2-butanol]
Growth in the presence of 2-butanol ([2]; 1.8 % w/v, 37° C.): +
Growth in the presence of 2-butanol ([2]; 2.1 % w/v, 37° C.): +
Growth in the presence of 2-butanol ([2]; 2.9 % w/v, 25° C.): +
Growth in the presence of 2-butanol ([2]; 2.9 % w/v, 30° C.): +
Growth in the presence of 2-butanol ([2]; 2.9 % w/v, 37° C.): +
Growth in the presence of 2-butanol ([2]; 3.1 % w/v, 37° C.): +
Growth in the presence of 2-butanol ([2]; 3.6 % w/v, 37° C.): +
Growth in the presence of 2-butanol ([2]; 3.8 % w/v, 25° C.): +
Growth in the presence of 2-butanol ([2]; 3.8 % w/v, 30° C.): +
Growth in the presence of 2-butanol ([2]; 3.8 % w/v, 37° C.): +
Growth in the presence of 2-butanol ([2]; 4.0 % w/v, 30° C.): +
Growth in the presence of 2-butanol ([2]; 4.3 % w/v, 25° C.): +
Growth in the presence of 2-butanol ([2]; 4.3 % w/v, 30° C.): +
Growth in the presence of 2-butanol ([2]; 4.3 % w/v, 37° C.): +
Growth in the presence of 2-butanol ([2]; 4.7 % w/v, 25° C.): +
Growth in the presence of 2-butanol ([2]; 4.7 % w/v, 30° C.): +
Growth in the presence of 2-butanol ([2]; 4.7 % w/v, 37° C.): −
Growth in the presence of 2-butanol ([2]; 4.9 % w/v, 25° C.): +
Growth in the presence of 2-butanol ([2]; 4.9 % w/v, 30° C.): −
Growth in the presence of 2-butanol ([2]; 5.2 % w/v, 25° C.): +
Growth in the presence of 2-butanol ([2]; 5.2 % w/v, 37° C.): −
Growth in the presence of 2-butanol ([2]; 5.6 % w/v, 25° C.): −
Growth in the presence of 2-butanol ([2]; 5.6 % w/v, 37° C.): −
Growth in the presence of 2-butanol ([2]; 6.0 % w/v, 37° C.): −
Growth in the presence of 2-butanol ([2]; 6.4 % w/v, 37° C.): −
Growth in the presence of 2-butanol ([2]; 7.3 % w/v, 37° C.): −
concentration in which growth was observed ([2]; 25° C.): 5.2%
concentration in which growth was not observed ([2]; 30° C.): 4.9%
concentration in which growth was observed ([2]; 30° C.): 4.7%
concentration in which growth was not observed ([2]; 37° C.): 4.5%
concentration in which growth was observed ([2]; 37° C.): 4.3%
Growth in the presence of 2-butanol ([2]; […] w/v, 30° C.): +

CCC(C)=O [MEK, 2-butanone]
% Survival at 28° C. (E. coli strain BW25113; MEK 4 % w/v): 100%
% Survival at 37° C. (E. coli strain BW25113; MEK 4 % w/v): 100%
% Survival at 28° C. (E. coli strain BW25113; MEK 6 % w/v): 100%
% Survival at 37° C. (E. coli strain BW25113; MEK 6 % w/v): 0%
% Survival at 28° C. (E. coli strain BW25113; MEK 8 % w/v): 0.002%
% Survival at 37° C. (E. coli strain BW25113; MEK 8 % w/v): 0%
concentration with full survival (E. coli strain BW25113; exposure at 28° C.): 6 % w/v
concentration with full survival (E. coli strain BW25113; exposure at 37° C.): 4 % w/v
concentration with no survival (E. coli strain BW25113; exposure at 37° C.): 6 % w/v

CC(C)CO [isobutanol]
Growth in the presence of isobutanol ([2]; 3.3 % w/v, 30° C.): −

BHBD protein: 3-hydroxybutyryl-CoA dehydrogenase (SEQ ID NO:6) from C. acetobutylicum ATCC 824 expressed in E. coli
specific activity (hydroxybutyryl-CoA dehydrogenase) [3]: 57.4 µmol/mg/min

ThIA protein: acetoacetyl-CoA thiolase (SEQ ID NO:2) from C. acetobutylicum ATCC 824 expressed in E. coli
specific activity (acetoacetyl-CoA thiolase) (acetoacetyl-CoA thiolase): 16.0 µmol/mg/min

ThIB protein: acetoacetyl-CoA thiolase (SEQ ID NO:4) from C. acetobutylicum ATCC 824 expressed in E. coli
specific activity (acetoacetyl-CoA thiolase) (acetoacetyl-CoA thiolase): 14.9 µmol/mg/min

B1: crotonase protein: crotonase (SEQ ID NO:8) from C. acetobutylicum ATCC 824 expressed in E. coli (protein, listed as Clostridium acetobutylicum)
chain: MELNNVILEKEGKVAVVTINRPKALNALNSDTLKEMDYVIGEIENDSEVLAVILTGAGEKSFVAGADISEMKEMNTIEGRKFGILGNKVFRRLELLEKPVIAAVNGFALGGGCEIAMSCDIRIASSNARFGQPEVGLGITPGFGGTQRLSRLVGMGMAKQLIFTAQNIKADEALRIGLVNKVVEPSELMNTAKEIANKIVSNAPVAVKLSKQAINRGMQCDIDTALAFESEAFGECFSTEDQKDAMTAFIEKRKIEGFKNR
specific activity (crotonase) (crotonase): 444 µmol/mg/min

B2: BdhA protein: butanol dehydrogenase (SEQ ID NO:16) from C. acetobutylicum 824 expressed in E. coli (protein, listed as Clostridium acetobutylicum)
chain: MLSFDYSIPTKVFFGKGKIDVIGEEIKKYGSRVLIVYGGGSIKRNGIYDRATAILKENNIAFYELSGVEPNPRITTVKKGIEICRENNVDLVLAIGGGSAIDCSKVIAAGVYYDGDTWDMVKDPSKITKVLPIASILTLSATGSEMDQIAVISNMETNEKLGVGHDDMRPKFSVLDPTYTFTVPKNQTAAGTADIMSHTFESYFSGVEGAYVQDGIAEAILRTCIKYGKIAMEKTDDYEARANLMWASSLAINGLLSLGKDRKWSCHPMEHELSAYYDITHGVGLAILTPNWMEYILNDDTLHKFVSYGINVWGIDKNKDNYEIAREAIKNTREYFNSLGIPSKLREVGIGKDKLELMAKQAVRNSGGTIGSLRPINAEDVLEIFKKSY
specific activity (butanol dehydrogenase) (butanol dehydrogenase): 0.102 µmol/mg/min

B3: BdhB protein: butanol dehydrogenase (SEQ ID NO:14) from C. acetobutylicum ATCC 824 expressed in E. coli (protein, listed as Clostridium acetobutylicum)
chain: MVDFEYSIPTRIFFGKDKINVLGRELKKYGSKVLIVYGGGSIKRNGIYDKAVSILEKNSIKFYELAGVEPNPRVTTVEKGVKICRENGVEVVLAIGGGSAIDCAKVIAAACEYDGNPWDIVLDGSKIKRVLPIASILTIAATGSEMDTWAVINNMDTNEKLIAAHPDMAPKFSILDPTYTYTVPTNQTAAGTADIMSHIFEVYFSNTKTAYLQDRMAEALLRTCIKYGGIALEKPDDYEARANLMWASSLAINGLLTYGKDTNWSVHLMEHELSAYYDITHGVGLAILTPNWMEYILNNDTVYKFVEYGVNVWGIDKEKNHYDIAHQAIQKTRDYFVNVLGLPSRLRDVGIEEEKLDIMAKESVKLTGGTIGNLRPVNASEVLQIFKKSV
specific activity (butanol dehydrogenase) (butanol dehydrogenase): 0.169 µmol/mg/min
